Patent EP2468746A1, “Benzothiazinone compounds and their use as anti-tuberculosis agents” (priority 2010, dated 2012)
In brackets after ≈: the same amount, converted by molar mass. Several values for one entry are separate records, joined by “and”; a condition that tells them apart may be missing. Equal values may be shown once. Read-outs that look alike come from different tables or passages of the source.

Assays:
Stability in plasma (H) = conditions: first value of the cell
M tb MDR (BACTEC) = assay: microbe, parasite or virus in culture; assay type: cell-based, M. tuberculosis; conditions: for MIC: Mycobacterium tuberculosis
Cytotoxicity assay (MTT) = assay type: cell-based; conditions: human
Experimental: (§1) Test cells (see Table below for details) are seeded as 1x10^4 cells per well in a clear 96 well plate in a final volume of 100 µl in media. Cells are incubated for 24 hours at 37°C, 5% CO2 to allow cells to attach to the plates.
(§2) The compounds of the present invention are added in triplicate in a range of concentrations. For compound A e.g., the concentration started from 100µM,...and then 2-fold diluted to 0.78µM. Colistin and Tamoxifen were applied as controls.
(§3) The cells are incubated for 24 hours at 37°C, 5% CO2. MTT (3-(4,5-Dimethylthiazol-2-yl)-2,5-diphenyltetrazolium bromide) (Sigma) (dissolved in PBS) is added to each well to a final concentration of 0.4 mg/mL. The plate is then incubated for 1 hours at 37°C, 5% CO2. Media is removed, and crystals are resuspended in 60 µl of DMSO. Shaking the plate at room temperature for 10 minutes dissolves the formazan crystals, and the absorbance is then read at 570 nm.
(§4) Results are presented as the average percentage of control ± SD for each set of duplicate wells using the following equation: Percent Viability = (ABSTEST - ABS5%DMSO/ / ABSUNTREATED -ABS5%DMSO)*100. A 1% DMSO 'vehicle' control is also included to monitor the effect of DMSO on the cells (all pure compounds are diluted in 10 % DMSO, so final assay concentration is 1%).

Stability in plasma (M) = conditions: second value of the cell
M aurum SB66 = assay: MIC assay, broth microdilution with resazurin; assay type: cell-based; conditions: for activity against M. aureum strain SB66: strain resistant against agents that target decaprenylphosporyl-β-D-ribose 2'-epimerase
Experimental: (§5) The protocol used is based upon that detailed by the CLSI (Clinical and Laboratory Standards Institute (CLSI) 2006. Methods for Dilution Antimicrobial Susceptibility Tests for Bacteria that Grow Aerobically; Approved Standard. 7th edn. Document M7-A6. Clinical and Laboratory Standards Institute, Wayne, PA.).
(§6) The compounds are dissolved in DSMO in a concentration of 1 mg/ml and further diluted in water to achieve the final concentration, which is used as the highest concentration for determination of MIC. This highest concentration is filled in the first row of the microtiter plate and further diluted in the culture medium for the mycobacteria (Mueller-Hinton Broth and Middlebrook 7H9 broth). All solutions are freshly prepared under sterile conditions.
(§7) Ciprofloxacin, Isoniazid and Rifampicin can be used as reference compounds for control of the assay as well as a solvent control.
(§8) Minimal inhibitory concentrations (MIC) are determined according to the CLSI guidelines using the broth microdilution method. 50 µl of the compound solution are serially diluted directly in the microtiter plate by factor two with MHB or 7H9 media. Then the wells are inocalated with 50 µl of test organisms in MHB/7H9 to give a final concentration of 5x10^5 CFU/ml. After that the microtiter plates are incubated at 37°C for 48 h. Then 30 µl of resazurin solution is added to each well and plates are allowed to incubate at 37°C for additional 24 hrs. A change from blue to pink colour indicates reduction of resazurin and therefore bacterial growth. The MIC is defined as the lowest drug concentration that prevents this colour change.
(§9) Resazurin salt powder (Sigma) is prepared at 0.01 % (wt/vol) in distilled water, sterilized by filtration through a 0.22 µm membrane and stored at 4°C for a week.

M vaccae 10670 = assay: MIC assay, broth microdilution with resazurin; assay type: cell-based
Experimental: as §5, §6, §7, §8, §9

M fort B = assay: MIC assay, broth microdilution with resazurin; assay type: cell-based; conditions: for MIC: read-out: MIC M fort B
Experimental: as §5, §6, §7, §8, §9

[1] = test system: Mycobacterium smegmatis, ATCC 700084; assay: MIC assay, broth microdilution with resazurin; assay type: cell-based; conditions: Mycolicibacterium smegmatis, ATCC700084; head carries superscript IMB; read-out: MIC M smeg 700084
Experimental: as §5, §6, §7, §8, §9

M. tuberculosis H37Rv = assay: BTZ efficacy in the acute animal model (mouse infection); assay type: in vivo; conditions: BALB/c mice, 5 x 10^6 CFU, gavage 37.5 or 300 mg per kg, once daily, 5 times/week, four weeks
Experimental: BTZ efficacy in vivo can be determined in a standard mouse infection model according to e.g. the following protocol. BALB/c mice are infected with M. tuberculosis H37Rv at a bacillary load of 5 x 10^6 CFU by injection into the eye venous sinus, 10 BALB/c mice per group. The first day of the treatment is day 8 after the infection. Mice are dosed by gavage with 37.5, or 300 mg of BTZ, per kg body weight, in carboxymethyl cellulose formulation (0.25%), once daily, 5 times/week, for four weeks. Negative control mice died 25-28 days after infection.

physchem = conditions: 20 °C, pH 7.4, aqueous buffer, kinetic from dmso stock
K-562 = assay type: cell-based
Experimental: as §1, §2, §3, §4

HUVEC = assay type: cell-based
Experimental: as §1, §2, §3, §4

M smeg 5G987 = assay: MIC assay, broth microdilution with resazurin; assay type: cell-based, Mycobacterium smegmatis; conditions: for MIC: Mycolicibacterium smegmatis
Experimental: as §5, §6, §7, §8, §9

HepG2 = assay: Cytotoxicity assay (MTT); assay type: cell-based; conditions: 24 hours, read-out: CytoTox HepG2 (CC50)
Experimental: as §1, §2, §3, §4

HeLa = assay: Cytotoxicity assay (MTT); assay type: cell-based; conditions: 24 hours, read-out: CytoTox HeLa (CC50)
Experimental: as §1, §2, §3, §4

HEK293 = assay: Cytotoxicity assay (MTT); assay type: cell-based; conditions: 24 hours, read-out: CytoTox HEK293 (CC50)
Experimental: as §1, §2, §3, §4

mycobacteria = conditions: comparison values, strain not named; cited from earlier work
[2] = 5G987, read-out: MIC M smeg 5G987

In the case of CN(C(=O)CN1CCN(c2nc(=O)c3cc(C(F)(F)F)cc([N+](=O)[O-])c3s2)CC1)c1ccccc1 [Compound A], the “Stability Plasma (H/M)” value (Stability in plasma (H)) is reported as 95%, the MIC (M tb MDR (BACTEC); read-out: MIC M tb MDR (BACTEC)) is reported as 0.03 µg/mL (≈ 0.0591 µM) and the MIC (M tb MDR (BACTEC); read-out: MIC against MDR M. tuberculosis) is reported as 0.03 µg/mL and 0.059 µM. For the same compound, the CC50 at 24 h (Cytotoxicity assay (MTT); HEK293 cells, read-out: CytoTox HEK293 (CC50)) was greater than 100 µM, the CC50 at 24 h (Cytotoxicity assay (MTT); HeLa cells, read-out: CytoTox HeLa (CC50)) was 39 µM and the CC50 at 24 h (Cytotoxicity assay (MTT); HepG2 cells, read-out: CytoTox HepG2 (CC50)) was greater than 100 µM. The “Stability Plasma (H/M)” value (Stability in plasma (M)) was 115%, the MIC (M aurum SB66) was greater than 100 µg/mL and the “activity against M. aureum strain SB66” value (M aurum SB66) was “neither compound A nor the Reference compound I are active”. It also gave an MIC (M vaccae 10670) of 0.00312 µg/mL (≈ 0.00615 µM), an MIC (M fort B) of 0.0125 µg/mL (≈ 0.0246 µM) and an MIC [1] of 0.015 µg/mL (≈ 0.0296 µM). For the same compound, the “efficacy, life of the treated mice” value (M. tuberculosis H37Rv) was “very effective in this model and significantly prolonged the life of the treated mice”, the solubility at 20 h (physchem) was 12 µM (≈ 6.09 µg/mL) and the “CytoTox K-562 (GC50)” value (K-562; human, 24 h) was 30 µM. The “CytoTox HUVEC (GC50)” value (HUVEC; human, 24 h) was 18 µM, the MIC (M smeg 5G987; 5G987, molar value in brackets, strain not named, read-out: MIC against Mycobacterium smegmatis) was 0.025 µM and the MIC (M smeg 5G987; [2]) was 0.0125 µg/mL. It also gave an MIC (M smeg 5G987; 5G987, read-out: MIC against Mycobacterium smegmatis) of 0.012 µg/mL.

In the case of CC1COC2(CCN(c3nc(=O)c4cc(C(F)(F)F)cc([N+](=O)[O-])c4s3)CC2)O1 (stereo not shown) [Cpd 1 of WO 2007/134625, reference compound], the “Stability Plasma (H/M)” value (Stability in plasma (H)) is reported as 107%, the “MIC M tb MDR (BACTEC)” value (M tb MDR (BACTEC)) is reported as no more than 0.015 µg/mL and the CC50 (HepG2) is reported as greater than 100 µM. For the same compound, the CC50 (HeLa) was greater than 50 µM, the CC50 (HEK293) was greater than 100 µM and the “Stability Plasma (H/M)” value (Stability in plasma (M)) was 97%. For the same compound, the “MIC M aurum SB66” value (M aurum SB66) was greater than 100 µg/mL, the “activity against M. aureum strain SB66” value (M aurum SB66) was “neither compound A nor the Reference compound I are active” and the MIC (M vaccae 10670) was 0.0004 µg/mL (≈ 0.000927 µM). The “MIC M fort B” value (M fort B) was 0.00156 µg/mL (≈ 0.00362 µM), the MIC [1] was 0.008 µg/mL (≈ 0.0185 µM) and the “CytoTox K-562 (GC50)” value (K-562) was 11 µM. For the same compound, the “CytoTox HUVEC (GC50)” value (HUVEC) was 8 µM and the “MIC M smeg 5G987” value (M smeg 5G987) was 0.00312 µg/mL (≈ 0.00723 µM).

In the case of O=c1nc(N2CCN(Cc3ccccc3)CC2)sc2c([N+](=O)[O-])cc(C(F)(F)F)cc12 [Cpd 7 of WO 2009/010163, reference compound], the MIC (M fort B) is reported as 0.05 µg/mL (≈ 0.111 µM) and the MIC (M smeg 5G987; [2]) is reported as 0.05 µg/mL.

In the case of CC[C@@H](CO)NCCN[C@@H](CC)CO [ethambutol], the “MIC of the existing TB drugs” value (mycobacteria) is given as 1 to 5 µg/mL.

In the case of NNC(=O)c1ccncc1 [isoniazid], the “MIC of the existing TB drugs” value (mycobacteria) is given as 0.02 to 0.2 µg/mL.
